ChEMBL document CHEMBL1156866 (J Med Chem, 2010)
The source made the active and inactive calls. No cut-off for these calls is given here.

How the values were obtained:
[1] = target: Folate receptor alpha (Homo sapiens) (UniProt P15328); experiment: Displacement of [3H]folic acid from human FRalpha expressed in Chinese hamster RT16 cells relative to unlabeled folic acid; type: cell-based
[2] = target: Folate receptor beta (Homo sapiens) (UniProt P14207); experiment: Displacement of [3H]folic acid from human FRbeta expressed in Chinese hamster D4 cells relative to unlabeled folic acid; type: cell-based
[3] = target: T1, Reduced folate transporter (Homo sapiens) (UniProt P41440); experiment: Displacement of [3H]MTX from human RFC expressed in Chinese hamster PC43-10 cells at 10 uM; type: cell-based
T1 sequence (whole entry): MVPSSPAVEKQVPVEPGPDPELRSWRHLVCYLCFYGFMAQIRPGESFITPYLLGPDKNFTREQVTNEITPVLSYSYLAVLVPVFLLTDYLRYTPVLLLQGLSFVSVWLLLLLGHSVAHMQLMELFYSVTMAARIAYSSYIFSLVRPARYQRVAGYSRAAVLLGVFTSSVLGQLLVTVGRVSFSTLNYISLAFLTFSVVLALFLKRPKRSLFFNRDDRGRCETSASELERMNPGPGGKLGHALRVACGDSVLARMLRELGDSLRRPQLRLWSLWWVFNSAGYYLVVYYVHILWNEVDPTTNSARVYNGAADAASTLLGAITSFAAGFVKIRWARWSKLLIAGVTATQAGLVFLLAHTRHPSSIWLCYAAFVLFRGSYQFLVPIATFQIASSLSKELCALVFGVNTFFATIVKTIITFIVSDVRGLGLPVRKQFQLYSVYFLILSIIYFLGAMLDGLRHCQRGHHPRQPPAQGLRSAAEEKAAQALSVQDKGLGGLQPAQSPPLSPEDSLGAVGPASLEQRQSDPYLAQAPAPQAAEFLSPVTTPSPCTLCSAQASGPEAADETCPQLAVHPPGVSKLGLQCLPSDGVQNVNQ

cells [4] = conditions: Cricetulus griseus, D4, 96 h
cells [5] = conditions: Cricetulus griseus, D4, 96 h; remark: listed apart in the source
cells [6] = conditions: Cricetulus griseus, 96 h
cells [7] = conditions: Cricetulus griseus, PC43-10, 96 h
R2 [8] = experiment: cells; conditions: Homo sapiens, R2, 96 h
cells [9] = conditions: Cricetulus griseus, RT16, 96 h
cells [10] = conditions: Cricetulus griseus, RT16, 96 h; remark: listed apart in the source
R2 [11] = experiment: cells; conditions: Homo sapiens, R2, 96 h; remark: listed apart in the source
KB [12] = experiment: cells; conditions: Homo sapiens, 96 h
IGROV-1 [13] = experiment: cells; conditions: Homo sapiens, IGROV-1, 96 h
IGROV-1 [14] = experiment: cells; conditions: Homo sapiens, IGROV-1, 96 h; remark: listed apart in the source
[15] = target: T2, Proton-coupled folate transporter (Homo sapiens, UniProt Q96NT5); experiment: Displacement of [3H]MTX from human PCFT expressed in Chinese hamster R2 cells at pH 6.8 by Dixon plot; type: cell-based
T2 sequence (Q96NT5 whole entry): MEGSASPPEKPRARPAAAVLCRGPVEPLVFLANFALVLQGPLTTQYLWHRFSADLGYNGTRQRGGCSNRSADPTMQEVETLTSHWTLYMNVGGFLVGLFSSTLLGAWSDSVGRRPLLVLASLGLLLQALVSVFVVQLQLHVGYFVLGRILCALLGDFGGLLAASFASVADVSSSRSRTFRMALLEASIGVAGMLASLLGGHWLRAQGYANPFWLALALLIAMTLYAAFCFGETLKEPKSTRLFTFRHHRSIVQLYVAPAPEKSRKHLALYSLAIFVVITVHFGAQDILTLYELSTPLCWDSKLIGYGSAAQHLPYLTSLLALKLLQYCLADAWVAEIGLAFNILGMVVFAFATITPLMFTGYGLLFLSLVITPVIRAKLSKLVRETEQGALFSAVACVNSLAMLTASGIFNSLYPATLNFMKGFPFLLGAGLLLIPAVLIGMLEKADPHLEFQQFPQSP

[16] = target: T2, Proton-coupled folate transporter; experiment: Displacement of [3H]MTX from human PCFT expressed in Chinese hamster R2 cells at pH 5.5 by Dixon plot; type: cell-based
KB [17] = experiment: Antitumor activity against human KB cells xenografted in folate deficient diet fed ICR SCID mouse assessed as tumor cell kill at 180 mg/kg, iv administered as Q4dx4 schedule starting from 4 days post tumor implantation; type: functional
KB [18] = experiment: Antitumor activity against human KB cells xenografted in folate deficient diet fed ICR SCID mouse assessed as tumor cell kill at 180 mg/kg, iv administered as Q4dx4 schedule starting from 29 days post tumor implantation; type: functional
KB [19] = experiment: Antitumor activity against human KB cells xenografted in folate deficient diet fed ICR SCID mouse assessed as tumor cell killing at 112.5 mg/kg, iv administered as Q4dx4 schedule starting from 29 days post tumor implantation; type: functional
KB [20] = experiment: cells; conditions: Homo sapiens, 96 h; remark: listed apart in the source

Sequence of Folate receptor alpha (Homo sapiens) (P15328 25-234 limits assumed): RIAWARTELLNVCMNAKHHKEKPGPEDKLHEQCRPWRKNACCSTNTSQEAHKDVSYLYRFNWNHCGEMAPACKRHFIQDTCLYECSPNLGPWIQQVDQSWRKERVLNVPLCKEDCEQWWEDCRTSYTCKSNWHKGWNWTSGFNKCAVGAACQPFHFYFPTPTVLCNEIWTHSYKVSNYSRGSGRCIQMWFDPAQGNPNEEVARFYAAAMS
Sequence of Folate receptor beta (Homo sapiens) (P14207 17-230 limits assumed): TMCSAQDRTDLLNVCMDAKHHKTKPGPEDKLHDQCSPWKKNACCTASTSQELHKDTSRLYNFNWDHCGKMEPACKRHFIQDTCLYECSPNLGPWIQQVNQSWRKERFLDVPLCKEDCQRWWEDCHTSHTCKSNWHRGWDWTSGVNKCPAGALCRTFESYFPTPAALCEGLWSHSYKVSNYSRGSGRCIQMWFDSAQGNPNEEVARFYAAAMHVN

## Nc1nc2[nH]c(CCCCCCc3ccc(C(=O)N[C@@H](CCC(=O)O)C(=O)O)s3)cc2c(=O)[nH]1
[1]
  relative binding affinity (RBA): 0.6
[2]
  relative binding affinity (RBA): 0.4
[3]
  Activity: inactive
Cells [4]
  IC50: > 1000 nM
Cells [5]
  IC50: > 1000 nM
Cells [6]
  IC50: > 1000 nM

## Nc1nc(N)c2nc(CNc3ccc(C(=O)N[C@@H](CCCNC(=O)c4ccccc4C(=O)O)C(=O)O)cc3)cnc2n1 [TALOTREXIN]
Cells [7]
  IC50: 1.28 nM
R2 [8]
  IC50: > 1000 nM
Cells [9]
  IC50: 409 nM
Cells [10]
  IC50: 864 nM
R2 [11]
  IC50: > 1000 nM
Cells [6]
  IC50: > 1000 nM
KB [12]
  IC50: 5.26 nM
IGROV-1 [13]
  IC50: 3.47 nM
IGROV-1 [14]
  IC50: 2.47 nM

## Cc1nc(=O)c2cc(CN(C)c3ccc(C(=O)N[C@@H](CCC(=O)O)C(=O)O)s3)ccc2[nH]1
[3]
  inhibition: > 50%

## CN(Cc1cnc2nc(N)nc(N)c2n1)c1ccc(C(=O)N[C@@H](CCC(=O)O)C(=O)O)cc1
[1]
  Activity: inactive
[2]
  Activity: inactive

## Nc1nc(=O)c2c([nH]1)NCC(CNc1ccc(C(=O)N[C@@H](CCC(=O)O)C(=O)O)cc1)N2C=O (mixture of isomers)
[3]
  inhibition: > 50%

## Nc1nc2[nH]cc(CCc3ccc(C(=O)N[C@@H](CCC(=O)O)C(=O)O)cc3)c2c(=O)[nH]1
[2]
  Activity: inactive
[3]
  inhibition: > 50%

## Nc1nc2c(c(=O)[nH]1)C[C@@H](CCc1ccc(C(=O)N[C@@H](CCC(=O)O)C(=O)O)cc1)CN2
[1]
  Activity: Active
[2]
  Activity: Active
[3]
  inhibition: > 50%

## Nc1nc2[nH]c(CCCCCc3ccc(C(=O)N[C@@H](CCC(=O)O)C(=O)O)s3)cc2c(=O)[nH]1
[1]
  relative binding affinity (RBA): 0.9
[2]
  relative binding affinity (RBA): 1.1
[15]
  Ki: 2230 nM
[16]
  Ki: 100 nM
[3]
  Activity: inactive
Cells [5]
  IC50: > 1000 nM
R2 [11]
  IC50: 101 nM
Cells [6]
  IC50: > 1000 nM

## Nc1nc2[nH]c(CCCCc3ccc(C(=O)N[C@@H](CCC(=O)O)C(=O)O)s3)cc2c(=O)[nH]1
[3]
  Activity: inactive
KB [17]
  LCK: 3.5
KB [18]
  LCK: 3.7
KB [19]
  LCK: 3.8
Cells [7]
  IC50: > 1000 nM
R2 [8]
  IC50: > 1000 nM
Cells [9]
  IC50: 1.82 nM
Cells [10]
  IC50: > 1000 nM
Cells [5]
  IC50: > 1000 nM
R2 [11]
  IC50: 43.4 nM
Cells [6]
  IC50: > 1000 nM
KB [20]
  IC50: > 1000 nM
IGROV-1 [14]
  IC50: > 1000 nM
